System: 997726-040-R-J2-PDC tumor spheroids, viability
Experiment: Anticancer human tumor 997726-040-R-J2-PDC patient-derived squamous cell lung carcinoma cell line growth inhibition [PI3K]
Conditions: spheroids with HUVEC and MSC; for IC50: curve of first compound; for viability, T/C: stronger effect = lower value
How it was run: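 Tumor cells grown as multi-cell spheroids with HUVEC endothelial cells and MSC fibroblast-like stroma were treated with targeted agents combined with inavolisib, alpelisib, duvelisib or copanlisib. Doses fell in half-log steps from near clinical Cmax, else from 10 microM. Viability was measured.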

[1] = second compound 0.00316 µM, first compound 0.0316 µM
[2] = second compound 0.00316 µM, first compound 0.1 µM
[3] = second compound 0.00316 µM, first compound 0.316 µM
[4] = second compound 0.00316 µM, first compound 1 µM
[5] = second compound 0.00316 µM, first compound 3.16 µM
[6] = second compound 0.00316 µM, first compound 10 µM
[7] = second compound 0.01 µM, first compound 0.0316 µM
[8] = second compound 0.01 µM, first compound 0.1 µM
[9] = second compound 0.01 µM, first compound 0.316 µM
[10] = second compound 0.01 µM, first compound 1 µM
[11] = second compound 0.01 µM, first compound 3.16 µM
[12] = second compound 0.01 µM, first compound 10 µM
[13] = second compound 0.0316 µM, first compound 0.0316 µM
[14] = second compound 0.0316 µM, first compound 0.1 µM
[15] = second compound 0.0316 µM, first compound 0.316 µM
[16] = second compound 0.0316 µM, first compound 1 µM
[17] = second compound 0.0316 µM, first compound 3.16 µM
[18] = second compound 0.0316 µM, first compound 10 µM
[19] = second compound 0.1 µM, first compound 0.0316 µM
[20] = second compound 0.1 µM, first compound 0.1 µM
[21] = second compound 0.1 µM, first compound 0.316 µM
[22] = second compound 0.1 µM, first compound 1 µM
[23] = second compound 0.1 µM, first compound 3.16 µM
[24] = second compound 0.1 µM, first compound 10 µM
[25] = second compound 0.316 µM, first compound 0.0316 µM
[26] = second compound 0.316 µM, first compound 0.1 µM
[27] = second compound 0.316 µM, first compound 0.316 µM
[28] = second compound 0.316 µM, first compound 1 µM
[29] = second compound 0.316 µM, first compound 3.16 µM
[30] = second compound 0.316 µM, first compound 10 µM
[31] = second compound 1 µM, first compound 0.0316 µM
[32] = second compound 1 µM, first compound 0.1 µM
[33] = second compound 1 µM, first compound 0.316 µM
[34] = second compound 1 µM, first compound 1 µM
[35] = second compound 1 µM, first compound 3.16 µM
[36] = second compound 1 µM, first compound 10 µM
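Also: spheroids exposed to compounds for seven days before readout.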

## Cn1ncc(Cl)c1-c1cc(C(=O)NC(CN)Cc2cccc(F)c2)sc1Cl (stereo not drawn) + CC(Nc1ccc2c(c1)OCCn1cc(N3C(=O)OCC3C(F)F)nc1-2)C(N)=O
Second compound 0.00316 µM
  IC50: 82.7 nM
Second compound 0.01 µM
  IC50: 83 nM
Second compound 0.0316 µM
  IC50: 33.1 nM
Second compound 0.1 µM
  IC50: < 31.6 nM
Second compound 0.316 µM
  IC50: < 31.6 nM
Second compound 1 µM
  IC50: < 31.6 nM
[1]
  viability, T/C: 75.1%
[2]
  viability, T/C: 45.4%
[3]
  viability, T/C: 20.1%
[4]
  viability, T/C: 13.6%
[5]
  viability, T/C: 10.8%
[6]
  viability, T/C: 7.43%
[7]
  viability, T/C: 62.8%
[8]
  viability, T/C: 48.7%
[9]
  viability, T/C: 21.5%
[10]
  viability, T/C: 14.8%
[11]
  viability, T/C: 8.36%
[12]
  viability, T/C: 5.21%
[13]
  viability, T/C: 50.1%
[14]
  viability, T/C: 39.8%
[15]
  viability, T/C: 21%
[16]
  viability, T/C: 12%
[17]
  viability, T/C: 7.58%
[18]
  viability, T/C: 3.65%
[19]
  viability, T/C: 41%
[20]
  viability, T/C: 32.6%
[21]
  viability, T/C: 19.7%
[22]
  viability, T/C: 11.2%
[23]
  viability, T/C: 6.59%
[24]
  viability, T/C: 3.25%
[25]
  viability, T/C: 32.3%
[26]
  viability, T/C: 25.9%
[27]
  viability, T/C: 15.7%
[28]
  viability, T/C: 11.2%
[29]
  viability, T/C: 5.81%
[30]
  viability, T/C: 2.34%
[31]
  viability, T/C: 24%
[32]
  viability, T/C: 23.5%
[33]
  viability, T/C: 13.6%
[34]
  viability, T/C: 9.98%
[35]
  viability, T/C: 6.08%
[36]
  viability, T/C: 2.69%

## C=CC(=O)N1CCN(c2nc(=O)n(-c3c(C)ccnc3C(C)C)c3nc(-c4c(O)cccc4F)c(F)cc23)C(C)C1 (stereo not drawn) + CC(Nc1ccc2c(c1)OCCn1cc(N3C(=O)OCC3C(F)F)nc1-2)C(N)=O
Second compound 0.00316 µM
  IC50: > 10000 nM
Second compound 0.01 µM
  IC50: > 10000 nM
Second compound 0.0316 µM
  IC50: > 10000 nM
Second compound 0.1 µM
  IC50: < 31.6 nM
Second compound 0.316 µM
  IC50: < 31.6 nM
Second compound 1 µM
  IC50: < 31.6 nM
[1]
  viability, T/C: 88.3%
[2]
  viability, T/C: 93.5%
[3]
  viability, T/C: 96.6%
[4]
  viability, T/C: 103%
[5]
  viability, T/C: 119%
[6]
  viability, T/C: 114%
[7]
  viability, T/C: 87%
[8]
  viability, T/C: 81.7%
[9]
  viability, T/C: 88.5%
[10]
  viability, T/C: 81.7%
[11]
  viability, T/C: 106%
[12]
  viability, T/C: 98.8%
[13]
  viability, T/C: 60.2%
[14]
  viability, T/C: 63.4%
[15]
  viability, T/C: 67.5%
[16]
  viability, T/C: 67.2%
[17]
  viability, T/C: 72.1%
[18]
  viability, T/C: 82.3%
[19]
  viability, T/C: 43.7%
[20]
  viability, T/C: 47.3%
[21]
  viability, T/C: 43.3%
[22]
  viability, T/C: 49.1%
[23]
  viability, T/C: 54.4%
[24]
  viability, T/C: 48.4%
[25]
  viability, T/C: 31.6%
[26]
  viability, T/C: 32.8%
[27]
  viability, T/C: 33.8%
[28]
  viability, T/C: 33.4%
[29]
  viability, T/C: 37.7%
[30]
  viability, T/C: 33.5%
[31]
  viability, T/C: 26.7%
[32]
  viability, T/C: 27.5%
[33]
  viability, T/C: 29.5%
[34]
  viability, T/C: 26.7%
[35]
  viability, T/C: 30%
[36]
  viability, T/C: 27.2%

## CCN1CCN(Cc2ccc(Nc3ncc(F)c(-c4cc(F)c5nc(C)n(C(C)C)c5c4)n3)nc2)CC1 + COc1c(OCCCN2CCOCC2)ccc2c3n(c(=NC(=O)c4cnc(N)nc4)nc12)CCN3
Second compound 0.00316 µM
  IC50: > 1000 nM
Second compound 0.01 µM
  IC50: 10.4 nM
Second compound 0.0316 µM
  IC50: < 3.16 nM
Second compound 0.1 µM
  IC50: < 3.16 nM
Second compound 0.316 µM
  IC50: < 3.16 nM
Second compound 1 µM
  IC50: < 3.16 nM
Second compound 0.00316 µM, first compound 0.00316 µM
  viability, T/C: 70%
Second compound 0.00316 µM, first compound 0.01 µM
  viability, T/C: 68.4%
[1]
  viability, T/C: 62.2%
[2]
  viability, T/C: 54.2%
[3]
  viability, T/C: 55.1%
[4]
  viability, T/C: 65.3%
Second compound 0.01 µM, first compound 0.00316 µM
  viability, T/C: 61%
Second compound 0.01 µM, first compound 0.01 µM
  viability, T/C: 50.4%
[7]
  viability, T/C: 49.1%
[8]
  viability, T/C: 41.3%
[9]
  viability, T/C: 41.5%
[10]
  viability, T/C: 60.8%
Second compound 0.0316 µM, first compound 0.00316 µM
  viability, T/C: 31.4%
Second compound 0.0316 µM, first compound 0.01 µM
  viability, T/C: 34.8%
[13]
  viability, T/C: 29.5%
[14]
  viability, T/C: 28.1%
[15]
  viability, T/C: 31%
[16]
  viability, T/C: 33.7%
Second compound 0.1 µM, first compound 0.00316 µM
  viability, T/C: 22%
Second compound 0.1 µM, first compound 0.01 µM
  viability, T/C: 20.4%
[19]
  viability, T/C: 17.7%
[20]
  viability, T/C: 16.6%
[21]
  viability, T/C: 16.9%
[22]
  viability, T/C: 19.3%
Second compound 0.316 µM, first compound 0.00316 µM
  viability, T/C: 5.44%
Second compound 0.316 µM, first compound 0.01 µM
  viability, T/C: 4.49%
[25]
  viability, T/C: 4.5%
[26]
  viability, T/C: 6.65%
[27]
  viability, T/C: 6.95%
[28]
  viability, T/C: 7.72%
Second compound 1 µM, first compound 0.00316 µM
  viability, T/C: 1.02%
Second compound 1 µM, first compound 0.01 µM
  viability, T/C: 1.63%
[31]
  viability, T/C: 1.24%
[32]
  viability, T/C: 1.32%
[33]
  viability, T/C: 2.23%
[34]
  viability, T/C: 3.91%

## CCCS(=O)(=O)Nc1ccc(F)c(C(=O)c2c[nH]c3ncc(-c4ccc(Cl)cc4)cc23)c1F + CC(Nc1ncnc2nc[nH]c12)c1cc2cccc(Cl)c2c(=O)n1-c1ccccc1
Second compound 0.0316 µM
  IC50: 7290 nM
Second compound 0.1 µM
  IC50: 7370 nM
Second compound 0.316 µM
  IC50: 7390 nM
Second compound 1 µM
  IC50: 7170 nM
Second compound 3.16 µM
  IC50: 5940 nM
Second compound 10 µM
  IC50: 4430 nM
[13]
  viability, T/C: 104%
[14]
  viability, T/C: 103%
[15]
  viability, T/C: 128%
[16]
  viability, T/C: 137%
[17]
  viability, T/C: 162%
[18]
  viability, T/C: 20.9%
[19]
  viability, T/C: 107%
[20]
  viability, T/C: 116%
[21]
  viability, T/C: 110%
[22]
  viability, T/C: 121%
[23]
  viability, T/C: 166%
[24]
  viability, T/C: 23.1%
[25]
  viability, T/C: 103%
[26]
  viability, T/C: 102%
[27]
  viability, T/C: 114%
[28]
  viability, T/C: 138%
[29]
  viability, T/C: 169%
[30]
  viability, T/C: 23.1%
[31]
  viability, T/C: 102%
[32]
  viability, T/C: 95.5%
[33]
  viability, T/C: 109%
[34]
  viability, T/C: 126%
[35]
  viability, T/C: 146%
[36]
  viability, T/C: 23%
Second compound 3.16 µM, first compound 0.0316 µM
  viability, T/C: 71.1%
Second compound 3.16 µM, first compound 0.1 µM
  viability, T/C: 80%
Second compound 3.16 µM, first compound 0.316 µM
  viability, T/C: 83.9%
Second compound 3.16 µM, first compound 1 µM
  viability, T/C: 85.4%
Second compound 3.16 µM, first compound 3.16 µM
  viability, T/C: 107%
Second compound 3.16 µM, first compound 10 µM
  viability, T/C: 20.5%
Second compound 10 µM, first compound 0.0316 µM
  viability, T/C: 53.7%
Second compound 10 µM, first compound 0.1 µM
  viability, T/C: 57.2%
Second compound 10 µM, first compound 0.316 µM
  viability, T/C: 60.1%
Second compound 10 µM, first compound 1 µM
  viability, T/C: 60.4%
Second compound 10 µM, first compound 3.16 µM
  viability, T/C: 82.6%
Second compound 10 µM, first compound 10 µM
  viability, T/C: 19.3%
